Data as given in patent US11098063B2, “Diazabicyclic substituted imidazopyrimidines and their use for the treatment of breathing disorders” (Bayer Aktiengesellschaft, priority 2017, dated 2021).

Tests used:
Assay type in all cases: cell-based
human TASK-1 [1] = target: T1, human TASK-1 (Homo sapiens (Human), UniProt O14649); assay: Two-electrode voltage clamp analysis of human TASK-1 channel in Xenopus laevis oocytes; conditions: human TASK-1 expressed in Xenopus laevis oocytes, room temperature
T1 sequence (O14649 whole entry): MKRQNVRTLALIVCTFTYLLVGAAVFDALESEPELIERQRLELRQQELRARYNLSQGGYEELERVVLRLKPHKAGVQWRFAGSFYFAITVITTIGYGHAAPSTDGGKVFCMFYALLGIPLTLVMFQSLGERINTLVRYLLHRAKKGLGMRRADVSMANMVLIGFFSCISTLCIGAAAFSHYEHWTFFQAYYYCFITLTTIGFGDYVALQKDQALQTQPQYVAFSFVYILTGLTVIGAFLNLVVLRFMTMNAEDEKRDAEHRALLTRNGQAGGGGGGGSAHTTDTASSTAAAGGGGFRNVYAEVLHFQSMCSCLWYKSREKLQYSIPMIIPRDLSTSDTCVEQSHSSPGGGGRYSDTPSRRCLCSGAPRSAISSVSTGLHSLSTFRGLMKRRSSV
Description: (§1) B-1. In Vitro Electrophysiological Analysis of the Human TASK-1 and TASK-3 Channels Via Two-Electrode Voltage Clamp Technique in Xenopus laevis Oocytes
(§2) Xenopus laevis oocytes were selected as described elsewhere by way of illustration [Decher et al., FEBS Lett. 492, 84-89 (2001)]. Subsequently, the oocytes were injected with 0.5-5 ng of a cRNA solution coding for TASK-1 or TASK-3. For the electrophysiological analysis of the channel proteins expressed in the oocytes, the two-electrode voltage clamp technique [Stühmer, Methods Enzymol. 207, 319-339 (1992)] was used. The measurements were conducted as described [Decher et al., FEBS Lett. 492, 84-89 (2001)] at room temperature (21-22° C.) using a Turbo TEC 10CD amplifier (NPI), recorded at 2 kHz and filtered with 0.4 kHz. Substance administration was performed using a gravitation-driven perfusion system. Here, the oocyte is located in a measuring chamber and exposed to the solution stream of 10 ml/min. The level in the measuring chamber is monitored and regulated by sucking off the solution using a peristaltic pump.

human TASK-3 [2] = target: T2, human TASK-3 (Homo sapiens (Human), UniProt Q9NPC2); assay: Two-electrode voltage clamp analysis of human TASK-3 channel in Xenopus laevis oocytes; conditions: human TASK-3 expressed in Xenopus laevis oocytes, room temperature
T2 sequence (Q9NPC2 whole entry): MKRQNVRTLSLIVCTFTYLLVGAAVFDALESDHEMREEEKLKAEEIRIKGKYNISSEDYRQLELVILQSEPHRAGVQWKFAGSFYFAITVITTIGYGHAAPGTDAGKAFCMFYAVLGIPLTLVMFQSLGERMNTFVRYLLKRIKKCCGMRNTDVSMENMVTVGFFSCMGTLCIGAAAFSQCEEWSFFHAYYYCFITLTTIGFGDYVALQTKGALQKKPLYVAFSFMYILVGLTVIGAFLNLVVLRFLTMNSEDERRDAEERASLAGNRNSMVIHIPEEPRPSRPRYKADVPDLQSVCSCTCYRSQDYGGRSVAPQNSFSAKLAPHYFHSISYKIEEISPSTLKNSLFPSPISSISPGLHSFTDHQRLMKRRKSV
Description: as §1, §2

human TASK-1 [3] = target: T1, human TASK-1; assay: Inhibition of recombinant TASK-1 in stably transfected CHO cells (voltage-sensitive dye, KCl depolarization); conditions: depolarization by 40 mM potassium chloride
How it was run: (§3)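 Stably transfected CHO cells loaded with a voltage-sensitive membrane-potential dye were depolarized with 40 mM KCl in the presence of compound. IC50 is the concentration blocking half of the KCl-induced depolarization.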

human TASK-3 [4] = target: T2, human TASK-3; assay: Inhibition of recombinant TASK-3 in stably transfected CHO cells (voltage-sensitive dye, KCl depolarization); conditions: depolarization by 40 mM potassium chloride
How it was run: as §3

| IC50 (human TASK-1 [1]) [nM] | IC50 (human TASK-3 [2]) [nM] | SMILES | IC50 (human TASK-1 [3]) [nM] | IC50 (human TASK-3 [4]) [nM] |
| --- | --- | --- | --- | --- |
| 31.2 ± 5.8 | 140 ± 34.6 | COc1ccc(Cl)c(C(=O)N2CC3CCC2CN3Cc2c(-c3ccc(C(C)C)cc3)nc3ncccn23)n1 (single isomer, unassigned) [Example 26, (3-Chloro-6-methoxypyridin-2-yl)(5-{[2-(4-isopropylphenyl)imidazo[1,2-a]pyrimidin-3-yl]methyl}-2,5-diazabicyclo[2.2.2]oct-2-yl)methanone] | 1400 | 16 |
| – | – | Cc1ccccc1CNC(=O)N1C2CCC1CN(Cc1c(-c3ccc(Cl)cc3)nc3ncccn13)C2 [Example 107, 3-{[2-(4-chlorophenyl)imidazo[1,2-a]pyrimidin-3-yl]methyl}-N-(2-methylbenzyl)-3,8-diazabicyclo[3.2.1]octane-8-carboxamide] | 30000 | 750 |
| – | – | COc1ccc(Cl)c(C(=O)N2CC3CCC2CN3Cc2c(-c3ccc(Cl)cc3)nc3ncccn23)n1 (single isomer, unassigned) [Example 23, (3-Chloro-6-methoxypyridin-2-yl)(5-{[2-(4-chlorophenyl)imidazo[1,2-a]pyrimidin-3-yl]methyl}-2,5-diazabicyclo[2.2.2]oct-2-yl)methanone] | 1600 | 100 |
| – | – | O=C(c1ccccc1F)N1CC2CCC1CN2Cc1c(-c2ccc(Cl)cc2)nc2ncccn12 (stereo not drawn) [Example 42] | 1000 | 340 |
| 44.4 ± 4.4 | 71.8 ± 15.5 | COc1ccc(F)c(C(=O)N2CC3CCC2CN3Cc2c(-c3ccc(Cl)cc3)nc3ncccn23)n1 (stereo not drawn) [Example 41] | 1500 | 100 |
| – | – | COc1cccc(C(=O)N2C3COCC2CN(Cc2c(-c4ccc(Cl)cc4)nc4ncccn24)C3)n1 [Example 13, (7-{[2-(4-Chlorophenyl)imidazo[1,2-a]pyrimidin-3-yl]methyl}-3-oxa-7,9-diazabicyclo[3.3.1]non-9-yl)(6-methoxypyridin-2-yl)methanone] | 1500 | 33 |
| – | – | CC(C)(C)OC(=O)N1C2CCC1CN(Cc1c(-c3ccc(Br)cc3)nc3ncccn13)C2 [Example 12] | 220 | 13 |
| – | – | CC(C)N(C(=O)N1C2CCC1CN(Cc1c(-c3ccc(Cl)cc3)nc3ncccn13)C2)C(C)C [Example 111, 3-{[2-(4-chlorophenyl)imidazo[1,2-a]pyrimidin-3-yl]methyl}-N,N-diisopropyl-3,8-diazabicyclo[3.2.1]octane-8-carboxamide] | 6300 | 290 |
| – | – | O=C(C1CCCC1)N1C2CCC1CN(Cc1c(-c3ccc(C4CC4)cc3)nc3ncccn13)C2 [Example 134, cyclopentyl(3-{[2-(4-cyclopropylphenyl)imidazo[1,2-a]pyrimidin-3-yl]methyl}-3,8-diazabicyclo[3.2.1]octan-8-yl)methanone] | 770 | 97 |
| – | – | CC(C)c1ccc(-c2nc3ncccn3c2CN2CC3CCC2CN3C(=O)OC(C)(C)C)cc1 (racemic) [Example 7, tert-Butyl 5-{[2-(4-isopropylphenyl)imidazo[1,2-a]pyrimidine-3-yl]methyl}-2,5-diazabicyclo[2.2.2]octane-2-carboxylate] | 8600 | 570 |
| – | – | COc1ccc(Cl)c(C(=O)N2C3COCC2CN(Cc2c(-c4ccc(C(C)C)cc4)nc4ncccn24)C3)n1 [Example 67] | 1200 | 17 |
| – | – | COc1cccc(C(=O)N2C3CCC2CN(Cc2c(-c4ccc(C(C)C)cc4)nc4ncccn24)C3)n1 [Example 63] | 1700 | 15 |
| – | – | COc1ccc(F)c(C(=O)N2C3CCC2CN(Cc2c(-c4ccc(C5CC5)cc4)nc4ncccn24)C3)n1 [Example 135, (3-{[2-(4-cyclopropylphenyl)imidazo[1,2a]pyrimidin-3-yl]methyl}-3,8-diazabicyclo[3.2.1]octan-8-yl)(3-fluoro-6methoxypyridin-2-yl)methanone] | 420 | 34 |
| – | – | COc1cccc(C(=O)N2CC3CCC2CN3Cc2c(-c3ccc(Cl)cc3)nc3ncccn23)c1 (stereo not drawn) [Example 43] | 1000 | 320 |
| – | – | COc1cccc(C(=O)N2C3COCC2CN(Cc2c(-c4ccc(C(C)C)cc4)nc4ncccn24)C3)n1 [Example 66] | 3700 | 20 |
| – | – | CCN(C(=O)N1C2CCC1CN(Cc1c(-c3ccc(Cl)cc3)nc3ncccn13)C2)C1CCCCC1 [Example 112, 3-{[2-(4-chlorophenyl)imidazo[1,2-a]pyrimidin-3-yl]methyl}-N-cyclohexyl-N-ethyl-3,8-diazabicyclo[3.2.1]octane-8-carboxamide] | 15000 | 130 |

| IC50 (human TASK-1 [1]) [nM] | IC50 (human TASK-3 [2]) [nM] | SMILES | IC50 (human TASK-1 [3]) [nM] | IC50 (human TASK-3 [4]) [nM] |
| --- | --- | --- | --- | --- |
| – | – | Cc1nc(C(=O)N2C3CCC2CN(Cc2c(-c4ccc(Cl)cc4)nc4ncccn24)C3)c(C)o1 [Example 56] | 5600 | 54 |
| – | – | COc1ccc(F)c(C(=O)N2CC3CCC2CN3Cc2c(-c3ccc(C(C)C)cc3)nc3ncccn23)n1 (stereo not drawn) [Example 72] | 2100 | 29 |
| – | – | COc1ccc(C)c(C(=O)N2CC3CCC2CN3Cc2c(-c3ccc(C(C)C)cc3)nc3ncccn23)n1 (stereo not drawn) [Example 77] | 720 | 4.9 |
| – | – | CSc1cccc(C(=O)N2C3CCC2CN(Cc2c(-c4ccc(Cl)cc4)nc4ncccn24)C3)n1 [Example 33] | 190 | 130 |
| – | – | O=C(N1CCSCC1)N1C2CCC1CN(Cc1c(-c3ccc(Cl)cc3)nc3ncccn13)C2 [Example 122, (3-{[2-(4-Chlorophenyl)imidazo[1,2-a]pyrimidin-3-yl]methyl}-3,8-diazabicyclo[3.2.1]oct-8-yl)(thiomorpholin-4-yl)methanone] | 5000 | 120 |
| – | – | O=C(Nc1ccc(Cl)cc1C(F)(F)F)N1C2CCC1CN(Cc1c(-c3ccc(Cl)cc3)nc3ncccn13)C2 [Example 106, 3-{[2-(4-chlorophenyl)imidazo[1,2-a]pyrimidin-3-yl]methyl}-N-[4-chloro-2-(trifluoromethyl)phenyl]-3,8-diazabicyclo[3.2.1]octane-8-carboxamide] | 30000 | 89 |
| – | – | O=C(c1ccccc1F)N1C2CCC1CN(Cc1c(-c3ccc(C4CC4)cc3)nc3ncccn13)C2 [Example 133, (3-{[2-(4-cyclopropylphenyl)imidazo[1,2-a]pyrimidin-3-yl]methyl}-3,8-diazabicyclo[3.2.1]octan-8-yl)(2-fluorophenyl)methanone] | 1600 | 180 |
| – | – | O=C(c1ccccc1F)N1CC2CCC1CN2Cc1c(-c2ccc(Cl)cc2)nc2ncccn12 (stereo not drawn) [Example 39] | 1400 | 160 |
| – | – | COc1nc(C(F)(F)F)c(C(=O)N2C3CCC2CN(Cc2c(-c4ccc(Cl)cc4)nc4ncccn24)C3)s1 [Example 57] | 6400 | 57 |
| – | – | COc1cccc(C(=O)N2C3CCC2CN(Cc2c(-c4ccc(Cl)cc4)nc4ncccn24)C3)n1 [Example 20, (3-{[2-(4-Chlorophenyl)imidazo[1,2-a]pyrimidin-3-yl]methyl}-3,8-diazabicyclo[3.2.1]oct-8-yl)(6-methoxypyridin-2-yl)methanone] | 160 | 38 |
| – | – | CC(C)c1ocnc1C(=O)N1C2CCC1CN(Cc1c(-c3ccc(Cl)cc3)nc3ncccn13)C2 [Example 49] | 260 | 12 |
| – | – | O=C(Nc1cc(C(F)(F)F)ccc1Cl)N1C2CCC1CN(Cc1c(-c3ccc(Cl)cc3)nc3ncccn13)C2 [Example 97, 3-{[2-(4-chlorophenyl)imidazo[1,2-a]pyrimidin-3-yl]methyl}-N-[2-chloro-5-(trifluoromethyl)phenyl]-3,8-diazabicyclo[3.2.1]octane-8-carboxamide] | 31000 | 450 |
| – | – | CC(C)(C)OC(=O)N1CC2CCC1CN2Cc1c(-c2ccc(Br)cc2)nc2ncccn12 (stereo not drawn) [Example 11] | 2500 | 16 |
| – | – | COc1cccc(C(=O)N2CC3CCC2CN3Cc2c(-c3ccc(C(C)C)cc3)nc3ncccn23)n1 (stereo not drawn) [Example 74] | 3400 | 61 |
| – | – | COc1ccc(F)c(C(=O)N2C3CCC2CN(Cc2c(-c4ccc(Cl)cc4)nc4ncccn24)C3)n1 [Example 22, (3-{[2-(4-Chlorophenyl)imidazo[1,2-a]pyrimidin-3-yl]methyl}-3,8-diazabicyclo[3.2.1]oct-8-yl)(3-fluoro-6-methoxypyridin-2-yl)methanone] | 340 | 5.2 |
| – | – | O=C(c1ncoc1C1CC1)N1C2CCC1CN(Cc1c(-c3ccc(Cl)cc3)nc3ncccn13)C2 [Example 53] | 620 | 19 |

| SMILES | IC50 (human TASK-1 [1]) [nM] | IC50 (human TASK-3 [2]) [nM] | IC50 (human TASK-1 [3]) [nM] | IC50 (human TASK-3 [4]) [nM] |
| --- | --- | --- | --- | --- |
| CC(C)c1ccc(-c2nc3ncccn3c2CN2CC3COCC(C2)N3C(=O)c2cccc(OC(F)F)n2)cc1 [Example 19, [6-(Difluoromethoxy)pyridin-2-yl](7-{[2-(4-isopropylphenyl)imidazo[1,2-a]pyrimidin-3-yl]methyl}-3-oxa-7,9-diazabicyclo[3.3.1]non-9-yl)methanone] | 239 ± 2.7 | 774 ± 67.1 | 22000 | 59 |
